{"source": "patent US20060020036A1", "about": "“Methods and compositions to promote bone homestasis” (priority 2004, published 2006)", "key": {"[1]": {"system": "calvarial skull bones (hemicalvaria)", "assay": "Calvarial skull assay (bone organ culture)", "format": "cell-based, CD1 mice", "description": "CD1 pups are harvested around birth from CD1 female mice (received from Janvier (Le Genest St Isle, France) when they were 11 days pregnant). Pups are decapitated and the calvarial skull is dissected and split into 2 hemicalvaria. Hemicalvaria are blotted using sterile gauze, weighed and cultured in 24 well plates (MEMalpha or BGJb-Fitton-Jackson medium containing 50 μg/ml L-ascorbic acid (Sigma, A-4034), 5 mM β-glycerophosphate (Sigma, G-9891) and Penicillin-Streptomycin (Invitrogen Cat # 15140-122)). Small molecules (ligands, agonists, antagonists) are tested in at least three-fold at a minimum of 3 concentrations. Each small molecule is added to the medium on day 0 and added again when refreshing the medium (every 2-3 days). Three to 16 days after the start of the experiment, skulls are weighed again after blotting them dry using sterile gauze. The weight difference is calculated, expressed as percent weight change and the mean and standard deviations (SD) are calculated for the triplicate measurements. Data are analyzed using the Student's t-test.\nThe formation of new osteoid is analyzed histologically as follows: hemicalvaria are fixed in 10% buffered formalin for at least 2 days, decalcified in 10% EDTA overnight, processed through graded alcohols and embedded in paraffin wax. Three to 10 μm sections are prepared of the calvaria and stained with hematoxylin and eosin (H&E). Healthy cells, dead cells, old and new bone, and collagen are identified by their distinctive morphology and colouring observed after H&E staining. The surfaces taken by these are measured stereologically (μm^2 readout) and termed Osteoblast area, Debris area, Native and New bone area, Collagen area and Total area (sum of the previous 5 areas), respectively. In addition, the thickness (μm readout) is measured at 8 positions, evenly spaced over the section.\nThe histological readout of the calvarial skull assay is developed using known osteogenic agents. Hemicalvaria were treated with recombinant human parathyroid hormone (rhPTH).\nT0901317 is added to the culture medium of the dissected hemicalvaria at the day of dissection at several doses (19.5, 78.1 and 313 nM), in fourfold. The concentration of the solvent (vehicle), DMSO, is fixed at a final concentration of 0.05%. The medium, containing T0901317 or vehicle control is refreshed every 2-3 days. Hemicalvaria are harvested 7 days after the initiation of the experiment and subjected to the histological analysis described above."}, "[2]": {"system": "osteogenic markers mRNA in MPCs infected with Ad-NR1H3", "assay": "Osteogenic marker mRNA levels (rtRT-PCR) in MPCs infected with Ad-NR1H3 + T0901317", "format": "cell-based, human", "settings": "Ad-NR1H3 + T0901317 (1 μM)", "description": "Osteogenic differentiation of MPCs into osteoblasts is accompanied by the up-regulation of osteogenic proteins. […] The MPCs that are used in this study are profiled for the up-regulation of a limited set of osteogenic markers by BMP2. Markers that show differential expression for BMP2 are subsequently tested against mRNA derived from Ad-NR5A2 infected cells or derived from Ad-NR1H3+T0901317 treated cells. 100,000 MPCs are seeded in each well of a 6 well plate in 2 ml MPC medium, containing 10% FCS. The next day, after incubation at 37° C., 10% CO2 in a humidified incubator, cells are co-infected with AdC15-hCAR (final MOI of 750) and Ad-NR5A2, Ad-NR1H3+T0901317 (1 μM) or Ad-BMP2 (positive control) or Ad-eGFP or Ad-luciferase as negative controls (final MOIs of 1250 and 2500). Cells are incubated at 37° C., 10% CO2 in a humidified incubator for a further six days unless cells are already harvested for RNA isolation. Virus is removed and replaced by 2 ml fresh OS medium (proprietary medium containing 10% FCS). Over the next 3 weeks, medium is refreshed 3 times per 2 weeks. Every other time, medium is refreshed half or completely. Monolayers are harvested at several time points (see FIG. 15), total RNA is harvested and quantified and rtRT-PCRs are run as follows: monolayers are washed with ice cold PBS and harvested by adding SV RNA Lysis Buffer. Total RNA is prepared using the SV Total RNA isolation System (Promega, Cat # Z3100). RNA concentration is measured with the Ribogreen RNA Quantification kit (Molecular Probes, Leiden, The Netherlands, Cat No. R-11490). cDNA synthesis is performed using 20 ng total RNA per reaction using the TaqMan Universal PCR Master Mix, No AmpErase UNG, kit (Applied Biosystems, Warrington, UK, Part number 4324018). For each reverse transcriptase (RT) reaction a minus-RT reaction (negative control: no enzyme included in the reaction) is performed. The real-time reverse transcriptase (rtRT)-PCR reaction is performed with gene specific primers on both cDNA and minus-RT samples, using the SYBR Green PCR Master Mix (Applied Biosystems, Warrington, UK, Part number 4309155). Primers are quality controlled by performing PCR reactions on human genomic DNA and on plasmids containing the cDNA encoded by the gene studied if available. If the quality is unsatisfactory, additional primers are designed or validated primer sets are purchased (ABI). For the normalization of the expression levels a RT-PCR reaction is performed on human β-actin using the Human β-actin kit (Applied Biosystems, Warrington, UK, Part number 4310881E). The following program is run on a real-time PCR apparatus (ABI PRISM 7000 Sequence Detection System): 10 min at 25° C., 30 min at 48° C., 5 min at 95° C.\nExpression levels for osteogenic marker genes are first normalized for beta-actin levels. The resulting data for Ad-BMP2, Ad-NR5A2 and Ad-NR1H3+T0901317 (1 μM) samples are then compared to those of Ad-eGFP or Ad-luciferase negative control samples, harvested at the same time points, for cells infected at the same MOI."}, "[3]": {"settings": "19.5, 78.1 and 313 nM, 7 days, histology (H&E)"}, "[4]": {"settings": "up-regulated if 4-fold higher than negative control, one or more time points"}}, "data": [{"smiles": "O=S(=O)(c1ccccc1)N(CC(F)(F)F)c1ccc(C(O)(C(F)(F)F)C(F)(F)F)cc1", "note": "[T0901317, N-(2,2,2-trifluoroethyl)-N-[4-[2,2,2-trifluoro-1-hydroxy-1-(trifluoromethyl)ethyl]phenyl]-benzenesulfonamide]", "values": [{"measurement": "dose-response activity towards areas of osteoblast", "setting": "[1]; 19.5, 78.1 and 313 nM, 7 days", "value": "Dose-response activity of the compound is observed"}, {"measurement": "dose-response activity towards thickness", "setting": "[1]; 19.5, 78.1 and 313 nM, 7 days", "value": "Dose-response activity of the compound is observed"}, {"measurement": "dose-response activity towards total area (sum of all areas measured)", "setting": "[1]; 19.5, 78.1 and 313 nM, 7 days", "value": "Dose-response activity of the compound is observed"}, {"measurement": "areas of collagen", "setting": "[1]; [3]", "value": "Statistically significant increases"}, {"measurement": "areas of new bone", "setting": "[1]; [3]", "value": "Statistically significant increases"}, {"measurement": "areas of osteoblast", "setting": "[1]; [3]", "value": "Statistically significant increases"}, {"measurement": "weight increases in calvarial skull explants", "setting": "[1]; FIG. 18", "value": "Weight increases"}, {"measurement": "BAP mRNA expression", "setting": "[2]; [4]", "value": "up-regulated expression"}, {"measurement": "PTHR1 mRNA expression", "setting": "[2]; [4]", "value": "up-regulated expression"}, {"measurement": "RANKL mRNA expression", "setting": "[2]; [4]", "value": "up-regulated expression"}, {"measurement": "aromatase mRNA expression", "setting": "[2]; [4]", "value": "up-regulated expression"}, {"measurement": "osteopontin mRNA expression", "setting": "[2]; [4]", "value": "up-regulated expression"}, {"measurement": "mRNA levels of osteogenic markers", "setting": "[2]; MPCs", "value": "up-regulate mRNA levels of osteogenic markers"}]}]}
